In PubChem BioAssay AID624491 (Broad Institute, 2012):

Test system: D54 ERlucT glycosylation luciferase reporter, luminescence, 24 h
Experiment: blockers of NLG process in reporter cells – D54 ERlucT cells, luminescence, cherry-picks, dose response (AID 624491);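 note: signal gain reflects blocked N-linked glycosylation of a luciferase reporter; actives raise luciferase signal so AC26 marks activators of the reporter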

Structure (SMILES)	AC26
COc1cccc(C(=O)Nc2ccc(N3CCN(C(=O)c4ccco4)CC3)cc2)c1	10700 nM
Cc1cc(C)cc(NC2=NC3(CCCCC3)N=C(N)N2)c1	545 nM
CCOc1cc(C(=O)Nc2ccc(N3CCOCC3)cc2)cc(Br)c1OC	2770 nM
Cc1cc(C)cc(C(=O)N2CC(=O)Nc3ccccc32)c1	265 nM
Cc1ccc(C(=O)Nc2cc(S(=O)(=O)N3CCOCC3)ccc2N2CCCC2)cc1	1310 nM
COc1cccc(-c2nn(-c3ccccc3)cc2/C=C\C(=O)c2cccs2)c1	1360 nM
O=C(/C=C/Sc1ccccc1)c1ccccc1	2150 nM
COc1ccc(C(=O)/C=C\c2ccc(NC(=O)c3cccs3)cc2)cc1	2000 nM
O=C(COC(=O)Cn1cnc2ccccc21)Nc1cccc2c1C(=O)c1ccccc1C2=O	2840 nM
Cn1c(-c2ccccc2)c(/C=N/NC(=O)c2ccc(O)cc2)c2ccccc21	647 nM
CCOc1ccc(/C=N/NC(=O)c2cc3c(OC)cccc3[nH]2)cc1	3800 nM
NC(=O)CC(NC(=O)c1ccc(Br)cc1)c1ccc(N2CCCCCC2)c([N+](=O)[O-])c1 (centres undefined)	1410 nM
CNc1ccc(Br)cc(C(=O)/C=C/c2cccc(OC)c2OC)c1=O	2220 nM
COc1cc2nc(NC(=O)c3ccc(F)cc3Cl)sc(=O)c2cc1OC	1900 nM
O=C(C[C@@H]1C[C@H]2c3cc(NC(=O)c4cccnc4)ccc3O[C@H]2[C@H](CO)O1)NCc1ccc(Oc2ccccc2)cc1	8780 nM
COc1cccc(C(NC(C)=O)c2nc(-c3ccccc3OC)cs2)c1 (centres undefined)	452 nM
CN1C(=O)c2cccc3c(S(=O)(=O)Nc4ccccn4)ccc1c23	5030 nM
COc1ccc(C=CC(=O)c2ccc(OC)c(OC)c2O)cc1OC	4390 nM
COC(=O)c1cc(OC)c(OC)cc1NC(=S)NC(=O)c1ccco1	607 nM
CCOC(=O)c1[nH]c(C)c(C(=O)Nc2cc(OC)ccc2OC)c1C	322 nM
CCOC(=O)c1cnc2c(C)cc(C)cc2c1NCCCN1CCOCC1	3470 nM
Cc1cccn2c(=O)c3cc(C(=O)NCCN4CCOCC4)c(=N)n(CCc4ccccc4)c3nc12	8760 nM

Structure (SMILES)	AC26
C(=C\c1nccc2c1[nH]c1ccccc12)/c1ccccc1	4680 nM
Cn1c(=O)n(C)c2cc(C(=O)Nc3ccc4c(c3)OCO4)ccc21	1740 nM
Cc1noc(C)c1-c1ccc(C(=O)NCCc2ccccc2)c2occc12	4410 nM
C=CCn1c(SCc2c(C)noc2C)nc2sc3c(c2c1=O)CCC(C)C3 (centres undefined)	2060 nM
COc1cc(C2c3[nH]c4ccccc4c3CC3COC(=O)N32)cc(OC)c1O (centres undefined)	780 nM
Cc1cc([N+](=O)[O-])ccc1Nc1nc2ccccc2n2cnnc12	8280 nM
COc1ccc(OC)c(-c2nnc3n2N=C(c2ccc(OC)c(OC)c2)CS3)c1	4160 nM
C=C1c2nc3ccccc3n2C=C(c2ccc(C)cc2)N1c1ccccc1	9580 nM
COc1cc(-c2nccc3cc4c(cc23)OCO4)cc(OC)c1OC	1490 nM
COc1ccc(/C=N\NC(=O)c2sccc2C)cc1Cn1nc(C)cc1C	507 nM
COC(=O)c1ccc(C)c(NC(=O)CN(c2cc(OC)ccc2OC)S(C)(=O)=O)c1	641 nM
COC(=O)COc1cccc2c(=O)n(CC(=O)NCc3ccccc3)ccc12	1250 nM
O=C(Cc1ccc(-c2ccccc2)cc1)NCc1ccccc1	27.8 nM
COC(=O)c1c(NC(=O)c2cccnc2Cl)sc(C(=O)N(C)C)c1C	2090 nM
O=C(CCl)Nc1ccc(Sc2ccc(NC(=O)CCl)cc2)cc1	667 nM
CCN(CC)CCOc1c(Br)ccc2c1sc1nc3n(c(=O)c12)CCC3	3070 nM
COC(=O)c1cn(C(=O)c2cccc3ccccc23)c2ccccc12	928 nM
COc1ccc(-c2n[nH]c3c2CN(C(=O)c2ccc(OC)c(OC)c2)CC3)cc1	1760 nM
CC(=O)Nc1ccc2cc3ccc(NC(C)=O)cc3nc2c1	5210 nM
Cc1[nH][nH]c(=O)c1C(c1ccc(-c2ccc(F)cc2)o1)c1c(C)[nH][nH]c1=O	4090 nM
Cc1ccc(-n2nc(C)c(/C=N/NC(=O)c3cccs3)c2Cl)cc1	4230 nM
Cn1c(=O)n(C)c2cc(NS(=O)(=O)c3ccc4c(c3)CCCC4)ccc21	2670 nM
